What was measured:
[1] = target: T1, HLA-A*0201 molecules on T2 cells (Homo sapiens, UniProt P04439, D140Y/D185E/D98H/E176V/E277Q/G131W/G231S/I119V/I121R/I166T/I218V/L300P/L318F/N151K/N90K/P208A/P217A/Q86G/Q94H/R138H/R169H/T345S); test: class I HLA stabilization assay on T2 cells (flow cytometry, anti-HLA-A2 antibody); format: cell-based; conditions: for relative fluorescence intensity (RFI), percentage increase of mean fluorescence above negative controls: T2 cells, β2-microglobulin 10μg/mL, peptide 10μg/mL (Fig 1 legend: 100μg/mL), 16h 37°C, then Brefeldin A 2h; for affinity for HLA-A2 molecule (stabilization on T2 cells), class in words: T2 cell stabilization assay
T1 construct: endogenous in cells; host or cells: T2 cells
Method: The affinity of peptides for HLA-A*0201 molecules was evaluated by using the stabilization assay as previously described. Briefly, T2 cells were incubated with human β2-microglobulin at a final concentration of 10μg/mL in the presence or not of peptides at 10μg/mL for 16h at 37°C in 5% CO2. Cells were then incubated with 5μg/mL Brefeldin A (Sigma-Aldrich, St. Louis, MO) for 2h at 37°C. Expression of HLA-A*0201 on T2 cells was then determined by staining with fluorescein isothiocyanate-labelled anti-HLA-A2 antibody (BD Biosciences, San Jose, CA) and analyzed by flow cytometry using FACScan (BD Biosciences, San Jose, CA). Results were expressed in relative fluorescence intensity (RFI) calculated as the percentage increase of the mean fluorescence above that of the negative controls.
The sequence of 33 different clones of potentially ES proteins has been used. Based on computer software predictions, putative class I HLA-restricted T cell epitopes were identified. Twenty proteins were able to generate a total of 78 nonameric peptides that could be loaded by HLA-A*0201 molecule (Table 2). Subsequently, we have evaluated the binding affinity of these peptides to HLA-A*0201 molecules by class I HLA stabilization assay. This assay measures the increase of HLA-A*0201 molecules induced on T2 cells following exposure to exogenous HLA-A*0201 binding peptides, with high affinity peptides inducing HLA-A*0201 up-regulation more strongly than low-affinity peptides. Individual results are shown on Fig 1A. The 78 tested peptides were classified into 3 groups regarding the percentage of RFI.
Fig 1 Binding affinity of LmES peptides to HLA-A*0201 molecules. The affinities of selected peptides were determined by class I HLA stabilization assay. (A) Results for individual peptides. T2 cells were initially incubated with 100μg (final concentration) of each of the peptides/mL for 16h at 37°C, followed by incubation at 37°C for 2h in presence of Brefeldine A. HLA-A2 expression on these cells was analyzed by flow cytometry using the BB7.2 antibody. MHC stabilization efficiency for each peptide was calculated as the percentage increase of the mean fluorescence above that of the negative controls. Results were expressed as relative fluorescence intensity (RFI). (B) Box plot results. ++: RFI ranges from 200 to 300%, +: RFI ranges from 100 to 200%, and -: RFI ranges from 0 to 100%.

PBMCs = test: Granzyme B production by stimulated PBMCs (ELISA of culture supernatants); format: cell-based, human; conditions: PBMCs of 3 HLA-A*0201+ and 3 HLA-A*0201- immune (healed ZCL) donors, peptide 20μg/mL, 5 days; 24 peptides tested
Method: To assess whether the selected peptides could stimulate or not CD8^+ T cells, we have analysed the induction of GrB and IFN-γ by stimulated PBMCs from healed ZCL individuals. PBMCs separated from heparinized blood samples using Ficoll-Hypaque (Sigma-Aldrich, St. Louis, MO) density gradient centrifugation were resuspended in RPMI 1640 medium (Sigma-Aldrich, St. Louis, MO) supplemented with 2mM L-Glutamine (Sigma-Aldrich, St. Louis, MO), 1mM sodium pyruvate (Gibco, Invitrogen, Grand Island, NY), 100U/mL Penicillin (Sigma-Aldrich, St. Louis, MO), 100μg/mL Streptomycin (Sigma-Aldrich, St. Louis, MO), 10mM HEPES (Gibco, Invitrogen, Grand Island, NY), 20μg/mL Gentamicin (Gibco, Invitrogen, Grand Island, NY), 1X non-essential amino acids (Gibco, Invitrogen, Grand Island, NY), 2-mercaptoethanol (Gibco, Invitrogen, Grand Island, NY), and 10% (v/v) heat-inactivated human AB serum (Sigma-Aldrich, St. Louis, MO), [complete medium] at a concentration of 1.0x10^6 cells/mL. Peptide pools were prepared instantly by dilution with phosphate buffered saline and then added to the cell culture at a final concentration of 1μg/mL. In some experiments, peptides were added separately to the culture at a concentration of 20μg/mL. As positive control, PBMCs were stimulated with 10ng/mL of phorbol 12-myristate 13-acetate (PMA) (Sigma-Aldrich, St. Louis, MO) and 50ng/mL Ionomycin (Sigma-Aldrich, St. Louis, MO). All cultures were incubated at 37°C in 5% CO2 for 5 days. Culture supernatants were then harvested and frozen at -80°C until use.
Granzyme B (GrB), IFN-γ, and IL-10 levels in culture supernatants were quantified with an enzyme-linked immunosorbent (ELISA) assay (MABTECH AB, Nacka Strand, Sweden) for the first one and OptEIA set ELISA assay kit (BD Biosciences, San Jose, CA) for the others. The results were expressed as pg/mL based on the standards provided by the kits. Quantification thresholds were fixed to 100pg/mL for GrB, 45pg/mL for IFN-γ, and 20pg/mL for IL-10.
Fig 2 Peptides grouped in pools induced GrB production. (A) PBMCs from 5 HLA-A*0201^+-donors with a history of ZCL in response to stimulation with peptide pools at a final concentration of 1μg/mL per peptide or (B) SLA (10μg/mL) and PMA/Ionomycin (10ng/mL and 50ng/mL, respectively) as positive controls. GrB production was assessed in culture supernatants using ELISA. (C) Rank of the peptide pools. +: mean pool rank, -: median.
Fig 3 GrB induction by the selected peptides. (A) PBMCs from HLA-A*0201^+ (black mark) and HLA-A*0201^- (white mark) -healed ZCL individuals were stimulated with selected peptides separately. The supernatant was collected after 5 days of incubation and assayed for GrB production.

Row | Sequence | relative fluorescence intensity (RFI), percentage increase of mean fluorescence above negative controls [1] [%] | affinity for HLA-A2 molecule (stabilization on T2 cells), class in words [1] | GrB induction by individual peptides (PBMCs)
1 | ELLGNLEEV [D6, nonamer … from L. major ES protein Pr 31] | > 200 | – | –
2 | FMEVFGMLV [G2, nonamer … from L. major ES protein Pr 78] | > 200 | high | highest levels of GrB
3 | MLLWTAVAV [E1, nonamer … from L. major ES protein Pr 37] | > 200 | – | –
4 | MLVQSCTSI [G3, nonamer … from L. major ES protein Pr 78] | > 200 | high | highest levels of GrB
5 | PLSPATRRL [E6, nonamer … from L. major ES protein Pr 38] | – | – | highest levels of GrB
6 | SLQFSAFLL [G1, nonamer … from L. major ES protein Pr 78] | > 200 | – | –
7 | TLGVKQMVV [F6, nonamer … from L. major ES protein Pr 74 (elongation factor 1-alpha)] | > 200 | high | highest levels of GrB
8 | VVSVLTHSV [G4, nonamer … from L. major ES protein Pr 78] | – | intermediate | highest levels of GrB
9 | YLRTFPAAL [E2, nonamer … from L. major ES protein Pr 37] | – | intermediate | highest levels of GrB

Source: PMC4714855, “Prediction of T Cell Epitopes from Leishmania major Potentially Excreted/Secreted Proteins Inducing Granzyme B Production” (PLoS ONE, 2016)
